From PMC11233931, “Remodeling tumor‐associated macrophage for anti‐cancer effects by rational design of irreversible inhibition of mitogen‐activated protein kinase‐activated protein kinase 2” (MedComm, 2024)

Key:
[1] = test system: CD206 expression in RAW264.7 cells; experiment: Flow cytometry of CD206 in IL-4/IL-13 stimulated RAW264.7; type: cell-based, mouse; conditions: RAW264.7, IL-4/IL-13, 48 h
Description: (§1) A previous study has reported that MK2 fostered M2‐like polarization of TAMs, driving a protumor and proangiogenic phenotype which in turn accelerates tumor progression.[21] We thus assessed the influence of compound 11 on macrophage polarization and function. Our experiments used human THP‐1 monocyte induced macrophages, mouse RAW264.7 macrophages, and mouse bone marrow‐derived macrophages (BMDM). These cells were induced into M2‐like macrophages using the classic IL‐4 and IL‐13 stimuli.
In the in vitro analysis, cells were harvested, stained with surface antibodies, and subsequently fixed and permeabilized using IC Buffer following manufacturer's guidelines. Antibodies targeting intracellular molecules were used for further staining as cells were incubated for an additional 30 min at 4°C. These cells were then filtered using a 300‐mesh cell sieve prior to analysis via CytoFLEX (Beckman Coulter Life Sciences).
Figure S3 Inhibition of pro-tumorigenic M2-like polarization in macrophages by compound 11. (A) Illustrates the treatment effects on various macrophage cells using Western blot analysis post IL-4/IL-13 exposure (30 minutes or the specified time period). (B) Examines CD206 expression in RAW264.7 cells via flow cytometry post 48hours treatment of compound 11 and IL-4/IL-13. […] IL-4/IL-13 (20 ng/mL) served as the stimulation control, while untreated cells were the baseline control. […]

p-Hsp27 in THP-1 cells = experiment: Western blot of p-Hsp27 in IL-4/IL-13 treated THP-1 cells; type: cell-based, human; conditions: 1 h pretreatment, IL-4/IL-13 30 min
Description: as §1
(§2) FIGURE 5 Inhibition of pro‐tumorigenic M2‐like polarization in macrophages by compound 11. (A–C) RT‐PCR analysis highlights the impact of compound 11 on MRC1 and ARG‐1 mRNA expression in various macrophage cells treated with IL‐4/IL‐13 alone or combined with compound 11 for 12 h or 24 h. (D) CD206 and Arg‐1 expression in bone marrow‐derived macrophages (BMDM) cells via flow cytometry post 48 h treatment of compound 11 and IL‐4/IL‐13. (E) The treatment effects of compound 11 in THP‐1 cells using western blot analysis. […] Data are shown as the mean ± SD. ^* p < 0.05; ^*** p < 0.001 versus the vehicle group, determined by unpaired t test. […]
After the treatment outlined in the figure legends, cells were lysed using 1× sodium dodecyl sulfate (SDS) solution. […] Protein bands were detected using an enhanced chemiluminescence detection reagent (Thermo Fisher Scientific).

[2] = test system: MRC1 and ARG-1 mRNA in RAW264.7 macrophages; experiment: RT-PCR of M2 markers in IL-4/IL-13 stimulated RAW264.7 macrophages; type: cell-based, mouse; conditions: IL-4/IL-13 20 ng/mL
Description: as §1
FIGURE 5 Inhibition of pro‐tumorigenic M2‐like polarization in macrophages by compound 11. (A–C) RT‐PCR analysis highlights the impact of compound 11 on MRC1 and ARG‐1 mRNA expression in various macrophage cells treated with IL‐4/IL‐13 alone or combined with compound 11 for 12 h or 24 h. […] Data are shown as the mean ± SD. ^* p < 0.05; ^*** p < 0.001 versus the vehicle group, determined by unpaired t test. […]
Total RNA was extracted from cultured cells using the EZ‐press RNA Purification Kit (EZBioscience). Complementary DNA was synthesized using the ABScript III RT Master Mix for qPCR with gDNA remover (ABclonal Technology) and was quantified with primers listed in Table S5. The relative mRNA expression levels were quantified through qPCR using the SYBR green gene expression assay (ABclonal Technology).

[3] = Cell viability assay (CCK-8), MC38; type: cell-based; conditions: mouse, MC38 cells (colorectal carcinoma), MC38, murine colorectal carcinoma, read-out: IC50 (μM) mean ± SD, cytotoxicity
Protocol: (§3) In cellular experiments, cells are seeded into either 6-well or 96-well plates and incubated overnight, proceeding with treatments as described in the figure legends or methods section. The cell inoculation numbers are outlined as follows: For assays measuring cell viability, between 3,000 to 5,000 cells are seeded per well in 96-well plates. For other cellular assays, the seeding density ranges from 5×10^5 to 1×10^6 cells per well in 6-well plates.
(§4) Cells was plated into 96-well plates and incubated overnight prior to introduction of varying concentrations of compounds or control solvent. Following a 72-hour exposure period, cell viability was determined using a Cell Counting Kit-8 assay (Life-iLab, China). Dose-response curves were fitted using a four-parameter method facilitated by SoftMax Pro, which was subsequently used for the computation of IC50 values.

[4] = test system: TAMs and CD206+ TAMs in MC38 tumor; experiment: Flow cytometry of tumor infiltrating TAMs in MC38 tumor model; type: in vivo, mouse; conditions: treated 9 days
Protocol: as §2, with “analysis. Cells were pretreated with compound 11 for 1 h and followed by IL‐4/IL‐13 treatment (30 min). (F) The influence of MK2 siRNA on MRC1 and ARG‐1 mRNA expression in THP‐1 cells by RT‐PCR analysis post‐IL‐4/IL‐13 stimulation (12 h).” for “analysis.”
Antibodies targeting specific proteins along with corresponding isotype controls or FMO controls were employed to examine the leukocyte infiltrate: CD11b, CD45, CD206, Arg‐1, and F4/80 (BD, eBioscience and Biolegend). […] Eventually, the gathered data were analyzed using the FlowJo software, with the gating strategies utilized for flow cytometry represented in Figure S5.

[5] = Cell viability assay (CCK-8), PANC-1; type: cell-based; conditions: PANC-1 cells (pancreatic carcinoma), PANC-1, human pancreatic carcinoma, read-out: IC50 (μM) mean ± SD, cytotoxicity
Protocol: as §3, §4

C=CC(=O)Nc1cc(-c2cc(-c3cc4c([nH]3)CCNC4=O)ccn2)ccc1OC(F)(F)F [compound 11]
effect on CD206 expression [1]: A similar result
effect on p-Hsp27 (p-Hsp27 in THP-1 cells): significant inhibition
effect on transcriptional level of MRC1 and ARG-1 [2]: significantly suppressed
IC50 at 72 h [3]: 48.3 ± 10.5 µM
effect on total and M2-like (CD206+) TAM populations in tumor [4]: marked reduction
IC50 at 72 h [5]: 35.3 ± 1.4 µM
